The test system of series [1] is Escherichia coli ATCC 8739. Briefly: Bactericidal activity, CFU counting method. The series is classed as cell-based. The note with it: E. coli ATCC 8739; for Number of CFU/mL (× 10^7): 18 h at 37 °C, Control 9.47, Control with DMSO 9.30. On the procedure:
(§1) The bacterial cultures: Escherichia coli ATCC 8739 and Staphylococcus aureus ATCC 65389 were grown on Luria–Bertani Agar for 18 h at 37 ^∘ C. The strain suspension was prepared in 0.85% saline, with an optical density equivalent to a 0.5 McFarland standard. Next, the following mixtures were prepared: 180 μ L of sterile enriched broth (BTL), 10 μ L of the bacterial suspension and 10 μ L of the tested compound (range 0.1–50 μ g/mL) solubilized in DMSO. As a negative control, only DMSO was added. As a sterility control, 180 μ L of BTL and 20 μ L saline were used. The microtiter plate was incubated at 37 ^∘ C for 18 h. The colony forming unit (CFU) method was used to evaluate the microbial population. The experiment was repeated three times. Gentamicin was used as the reference antibiotic.

The test system of series [2] is Staphylococcus aureus ATCC 65389. Briefly: Bactericidal activity, CFU counting method. The series is classed as cell-based. The note with it: S. aureus ATCC 65389; for Number of CFU/mL (× 10^7): 18 h at 37 °C, Control 21.36, Control with DMSO 20.85. On the procedure: as §1
For series [3], the system named is AGS cell lines (human gastric adenocarcinoma). Briefly: MTT reduction cytotoxicity assay. The series is classed as cell-based. The note with it: for mean percentage of viable cells ± SD: 24 h. On the procedure:
(§2) Cell cultures: The L929 mouse fibroblasts and human gastric adenocarcinoma cell line AGS were used for in vitro cytotoxicity assays. The cells were maintained under standard conditions (37 ^∘ C, 5% CO 2 ) in 25 cm^2 tissue culture flasks in RPMI-1640 medium supplemented with 10% fetal bovine serum (FBS) and antibiotics: 100 U/mL penicillin and 100 μ g/mL streptomycin. The cell suspension containing 10 ^8 cells in 1 mL, was obtained by treatment of confluent monolayers with 0.25% trypsin solution, washed and subcultured. Cell cultures were supplemented with medium to maintain them in log phase growth. The viability of the cells was assessed by exclusion of trypan blue dye.
(§3) Measurements of cellular metabolic activity and global growth inhibition: L929 cells were seeded into 96-well plates (2 × 10 ^5 cells/well) for 24 h, at 37 ^∘ C, 5% CO2 . Tested compounds 5a–c, 6a–c, 7a–c, 8a–c, 9b,c, 10b,c, 12a and 13a were diluted serially in RPMI-1640 medium in concentrations of 50, 20, 10, 5, 0.5 and 0.1 μ g/mL, added to the cells (100 μ L/well), and incubated under standard conditions for 24 h. The potential harmful effect of lactones on L929 and AGS cells was assessed by the ability of the cells to reduce 3-(4,5-dimethylthiazol-2-yl)-2,5-diphenyltetrazolium bromide (MTT) to formazan. The solution of MTT (5 mg/mL in PBS), was added to each well and the plates were incubated for 4h at 37 ^∘ C. Formazan crystals were dissolved with acidic isopropanol (0.1 M HCl in absolute isopropanol) and the plates were read in a plate reader (Victor 2) at 570 nm. The percentage of MTT reduction was calculated by comparing the absorbance of treated cells to that of untreated control cells. Results are expressed as the mean percentage of viable cells ± standard deviation (SD) of four independent experiments. Statistical significance was accepted at a p-value < 0.05.
(Tetrazolium assays rely on reduction of a dye to a coloured formazan, in cell work by metabolically active cells.)

Series [4] relates to L929 cell lines (mouse fibroblasts). Briefly: MTT reduction cytotoxicity assay. The note with it: 24 h. The series is classed as cell-based. On the procedure: as §2, §3
The nature of series [5]: Observation of purified γ-iodo-δ-lactone isomers (decomposition, translactonization). The series is classed as physicochemical. As to conditions: purified trans,trans and cis,trans γ-iodo-δ-lactones; residue an equimolar mixture of trans and cis hydroxylactones. On the procedure: Iodolactonization of 4a–c acids was carried out with I2/KI and NaHCO3 in a water/diethyl ether mixture. […] The yield of reactions was in the range of 69–85%. The reaction conditions prevented the direct synthesis of these compounds because the reaction was carried out in an alkaline solution, whereas hydroxylactonization requires an acidic environment. […] and predominantly formed in this reaction. The excess of trans-isomer is usually observed in the synthesis of γ -lactones. However, the reaction initially gave δ -iodo- γ -lactones, which, through a translactonization reaction, were transformed into the final products–hydroxylactones 12a and 13a. This was confirmed by observations of purified isomers trans,trans and cis,trans γ -iodo- δ -lactones 9b and 10b, and 9c and 10c. […] The carbocation was stabilized by the electron lone pairs of the oxygen atom present in the water molecule. The preparation of hydroxylactones from iodolactones has been described thus far only for biotransformation experiments. The synthesis described here allows obtaining these compounds without microorganisms.

A short description of series [6]: MTT reduction cytotoxicity assay. The series is classed as cell-based, human. As to conditions: human, AGS cells (human gastric adenocarcinoma), 24 h, read-out: mean percentage of viable cells ± SD. On the procedure: as §2, §3
Series [7] can be described thus: MTT reduction cytotoxicity assay. The series is classed as cell-based, mouse. The note with it: mouse, L929 cells (mouse fibroblasts), read-out: mean percentage of viable cells ± SD. On the procedure: as §2, §3

These results are taken from PMC6572184, “New γ-Halo-δ-lactones and δ-Hydroxy-γ-lactones with Strong Cytotoxic Activity” (Molecules, 2019).

What is called IC50 is the concentration that gives 50% inhibition. Higher therefore signals a need for much substance. What is called melting point is the temperature of the solid-liquid transition.

The structures appear in SMILES notation. Like-named read-outs stand apart in the source and are kept apart here.

As to `CC1CC(=O)OC(c2ccccc2)C1I` (mixture of isomers) [10b, Cis,trans-tetrahydro-5-iodo-4-methyl-6-phenylpyran-2-one], the results for the “Number of CFU/mL (× 10^7)” value in series [1] and in series [2] were 7.65 × 10^7 CFU/mL and 5.92 × 10^7 CFU/mL, respectively. The molecule further gave a half-inhibitory concentration (IC50) in series [3] of 1.8 µM. Moreover, the “mean percentage of viable cells ± SD” value in series [3] (0.1 μg/mL) worked out at 58 ± 0.07%; in series [3] (0.5 μg/mL) it was 43 ± 0.02%; in series [3] (5 μg/mL), 37 ± 0.03%; in series [3] (10 μg/mL), 16 ± 0.09%; in series [3] (20 μg/mL), 14 ± 0.08%; in series [3] (50 μg/mL), 10 ± 0.06%. The “mean percentage of viable cells ± SD” value is reported as 25 ± 0.08% in series [4] (0.1 μg/mL); 20 ± 0.03% in series [4] (0.5 μg/mL); 15 ± 0.08% in series [4] (5 μg/mL); 7 ± 0.15% in series [4] (10 μg/mL); 5 ± 0.06% in series [4] (20 μg/mL); 1 ± 0.02% in series [4] (50 μg/mL). Besides, in series [5], the “stability of purified isomer (in words)” value is reported as “rapid decomposition with release of iodine”.

Regarding `CC1CC(=O)OC(c2ccc(F)cc2)C1I` (stereo not drawn) [9c, Trans,trans-6-(4-fluorophenyl)-tetrahydro-5-iodo-4-methylpyran-2-one], the “Number of CFU/mL (× 10^7)” value is given as 2.43 × 10^7 CFU/mL in series [1] and 9.76 × 10^7 CFU/mL in series [2]. Also, the “less CFU/mL (reduction of the number of CFU/mL)” value in series [1] (versus control) was 70–78%. This molecule also showed an IC50 in series [3] of 1.4 µM. In addition, the “mean percentage of viable cells ± SD” value in series [3] (0.1 μg/mL) is on record as 51 ± 0.10%; in series [3] (0.5 μg/mL), 43 ± 0.15%; in series [3] (5 μg/mL), 35 ± 0.10%; in series [3] (10 μg/mL) it was 23 ± 0.02%; in series [3] (20 μg/mL) it was 18 ± 0.06%; in series [3] (50 μg/mL), 15 ± 0.03%. Moreover, the “mean percentage of viable cells ± SD” value in series [4] (0.1 μg/mL) is listed as 15 ± 0.03%; in series [4] (0.5 μg/mL), 12 ± 0.08%; in series [4] (5 μg/mL), 9 ± 0.06%; in series [4] (10 μg/mL), 6 ± 0.03%; in series [4] (20 μg/mL), 3 ± 0.09%; in series [4] (50 μg/mL), 1 ± 0.05%. The “stability of purified isomer (in words)” value in series [5] is listed as “rapid decomposition with release of iodine”.

`CC1CC(=O)OC(c2ccccc2)C1Cl` (stereo not drawn) [5b, Trans,trans-5-chloro-tetrahydro-4-methyl-6-phenylpyran-2-one] showed a melting point of 105 to 106.5 °C. In addition, the “Number of CFU/mL (× 10^7)” value in series [1] is listed as 4.06 × 10^7 CFU/mL. Besides, the “Number of CFU/mL (× 10^7)” value in series [2] is reported as 7.63 × 10^7 CFU/mL. In series [3] (Homo sapiens), this molecule yielded an IC50 of 2.3 µM. Further, in series [6], the viability at 24 h, 0.1 μg/mL was 35 ± 0.06%; the viability at 24 h, 0.5 μg/mL was 20 ± 0.09%; the viability at 24 h, 5 μg/mL is 16 ± 0.06%; the viability at 24 h, 10 μg/mL was 14 ± 0.12%. Moreover, in series [6], the viability at 24 h, 20 μg/mL was found to be 11 ± 0.07% and the viability at 24 h, 50 μg/mL came out at 8 ± 0.09%. Further, the “mean percentage of viable cells ± SD” value in series [4] (5 μg/mL) was determined as 12 ± 0.05%. Further, in series [4] (10 μg/mL), the “mean percentage of viable cells ± SD” value is 7 ± 0.06%. In series [7], the viability at 24 h, 0.1 μg/mL was 20 ± 0.08%; the viability at 24 h, 0.5 μg/mL amounted to 18 ± 0.15%; the viability at 24 h, 20 μg/mL was 4 ± 0.02%; the viability at 24 h, 50 μg/mL stood at 1 ± 0.03%.

In the case of `CC1CC(=O)OC(c2cccc3ccccc23)C1Br` (stereo not drawn) [7a, Trans,trans-5-bromo-tetrahydro-4-methyl-6-(naphthalen-1-yl)pyran-2-one], the melting point was 197 to 198 °C. For the same molecule, the “Number of CFU/mL (× 10^7)” value in series [1] is on record as 5.21 × 10^7 CFU/mL. Further, the “Number of CFU/mL (× 10^7)” value in series [2] was 4.63 × 10^7 CFU/mL. The “less CFU/mL (reduction of the number of CFU/mL)” value in series [2] (versus control) is listed as 78–83%. Further, in series [3] (Homo sapiens), it took 2.1 µM to reach half-maximal inhibition (IC50). For the same molecule, in series [6], the viability at 24 h, 0.1 μg/mL was 39 ± 0.02%; the viability at 24 h, 0.5 μg/mL amounted to 26 ± 0.05%; the viability at 24 h, 5 μg/mL amounted to 25 ± 0.1%; the viability at 24 h, 10 μg/mL was found to be 21 ± 0.03%. Besides, in series [6], the viability at 24 h, 20 μg/mL was 20 ± 0.06% and the viability at 24 h, 50 μg/mL was 8 ± 0.03%. Besides, in series [7], the viability at 24 h, 0.1 μg/mL stood at 25 ± 0.02%; the viability at 24 h, 0.5 μg/mL amounted to 18 ± 0.12%; the viability at 24 h, 5 μg/mL is 12 ± 0.02%; the viability at 24 h, 10 μg/mL stood at 6 ± 0.07%. Also, in series [7], the viability at 24 h, 20 μg/mL came to 2 ± 0.03% and the viability at 24 h, 50 μg/mL is 1 ± 0.12%.

`C[C@@H]1CC(=O)O[C@@H]1[C@@H](O)c1cccc2ccccc12` [13a, Cis-dihydro-5-((S)-hydroxy(naphthalen-1-yl)methyl)-4-methylfuran-2(3H)-one]: the melting point lay in the range of 123 to 124 °C. For the same molecule, in series [1], the “Number of CFU/mL (× 10^7)” value is recorded as 6.02 × 10^7 CFU/mL. The “Number of CFU/mL (× 10^7)” value in series [2] is 9.12 × 10^7 CFU/mL. This molecule also registered a concentration for half-maximal inhibition (IC50) in series [3] (Homo sapiens) of 3.7 µM. In series [6], the viability at 24 h, 0.1 μg/mL was determined as 44 ± 0.12%; the viability at 24 h, 0.5 μg/mL turned out to be 39 ± 0.09%; the viability at 24 h, 5 μg/mL turned out to be 29 ± 0.05%; the viability at 24 h, 10 μg/mL was found to be 18 ± 0.12%. Further, in series [6], the viability at 24 h, 20 μg/mL was found to be 10 ± 0.1% and the viability at 24 h, 50 μg/mL came to 8 ± 0.08%. In series [7], the viability at 24 h, 0.1 μg/mL was 16 ± 0.09%; the viability at 24 h, 0.5 μg/mL was determined as 12 ± 0.02%; the viability at 24 h, 5 μg/mL is 9 ± 0.03%; the viability at 24 h, 10 μg/mL was 6 ± 0.06%. In series [7], the viability at 24 h, 20 μg/mL stood at 5 ± 0.12% and the viability at 24 h, 50 μg/mL was 1 ± 0.07%.
